# According to patent US9302999B2, “Substituted triazoles as herbicides” (E. I. DU PONT DE NEMOURS AND COMPANY, priority 2012, dated 2016):
# Tests used:
# Format in all cases: in vivo
# [1] = tested on: foxtail, green (green foxtail, Setaria viridis); test: Test C pre-/postemergence: foxtail, green
# Description: (§1) Seeds of plant species selected from blackgrass (Alopecurus myosuroides), bromegrass, downy (downy bromegrass, Bromus tectorum), foxtail, green (green foxtail, Setaria viridis), ryegrass, Italian (Italian ryegrass, Lolium multiflorum), winter wheat (Triticum aestivum), wild oat (Avena fatua), galium (catchweed bedstraw, Galium aparine), bermudagrass (Cynodon dactylon), surinam grass (Brachiaria decumbens), cocklebur (common cocklebur, Xanthium strumarium), corn (Zea mays), large crabgrass (Digitaria sanguinalis), woolly cupgrass (Eriochloa villosa), foxtail, giant (giant foxtail, Setaria faberii), goosegrass (Eleusine indica), johnsongrass (Sorghum halepense), kochia (Kochia scoparia), lambsquarters (Chenopodium album), morningglory (Ipomoea coccinea), nightshade (eastern black nightshade, Solanum ptycanthum), nutsedge, yellow (yellow nutsedge, Cyperus esculentus), pigweed (Amaranthus retroflexus), ragweed (common ragweed, Ambrosia elation), soybean (Glycine max), common (oilseed) sunflower (Helianthus annuus), Russian thistle (Salsola kali) and velvetleaf (Abutilon theophrasti) were planted into a blend of loam soil and sand and treated preemergence with test chemicals formulated in a non-phytotoxic solvent mixture which included a surfactant.
# (§2) At the same time, plants selected from these crop and weed species and also barley (winter barley, Hordeum vulgare), canarygrass (Phalaris minor), chickweed (common chickweed, Stellaria media) windgrass (Apera spica-venti) and deadnettle (henbit deadnettle, Lamium amplexicaule) were planted in pots containing Redi-Earth® planting medium (Scotts Company, 14111 Scottslawn Road, Marysville, Ohio 43041) comprising spaghnum peat moss, vermiculite, wetting agent and starter nutrients and treated with postemergence applications of test chemicals formulated in the same manner. Plants ranged in height from 2 to 18 cm (1- to 4-leaf stage) for postemergence treatments.
# (§3) Treated plants and controls were maintained in a greenhouse for 13 to 15 days, after which time all species were compared to controls and visually evaluated. Plant response ratings, summarized in Table C, are based on a scale of 0 to 100 where 0 is no effect and 100 is complete control. A dash (-) response means no test result.
# [2] = tested on: surinam grass (Brachiaria decumbens); test: Test C pre-/postemergence: surinam grass
# Description: as §1, §2, §3
# [3] = tested on: goosegrass (Eleusine indica); test: Test C pre-/postemergence: goosegrass
# Description: as §1, §2, §3
# [4] = tested on: blackgrass (Alopecurus myosuroides); test: Test D pre-/postemergence: blackgrass
# Description: (§4) Seeds of plant species selected from bluegrass (annual bluegrass, Poa annua), blackgrass (Alopecurus myosuroides), canarygrass (Phalaris minor), chickweed (common chickweed, Stellaria media), galium (catchweed bedstraw, Galium aparine), bromegrass, downy (downy bromegrass, Bromus tectorum), field poppy (Papaver rhoeas), field violet (Viola arvensis), foxtail, green (green foxtail, Setaria viridis), deadnettle (henbit deadnettle, Lamium amplexicaule), ryegrass, Italian (Italian ryegrass, Lolium multiflorum), kochia (Kochia scoparia), lambsquarters (Chenopodium album), oilseed rape (Brassica napus), pigweed (Amaranthus retroflexus), Russian thistle (Salsola iberica), chamomile (scentless chamomile, Matricaria inodora), speedwell (bird's-eye speedwell, Veronica persica), barley, spring (spring barley, Hordeum vulgare), wheat, spring (spring wheat, Triticum aestivum), buckwheat, wild (wild buckwheat, Polygonum convolvulus), mustard, wild (wild mustard, Sinapis arvensis), oat, wild (wild oat, Avena fatua), radish, wild (wild radish, Raphanus raphanistrum), windgrass (Apera spica-venti), barley, winter (winter barley, Hordeum vulgare), and wheat, winter (winter wheat, Triticum aestivum) were planted into a silt loam soil and treated preemergence with test chemicals formulated in a non-phytotoxic solvent mixture which included a surfactant. At the same time, these same crop and weed species were planted in pots containing the planting medium comprising spaghnum peat moss, vermiculite, wetting agent and starter nutrients and treated with postemergence applications of the test chemicals formulated in the same manner. Plants ranged in height from 2 to 18 cm (1- to 4-leaf stage).
# as §3, with “controlled growth environment” for “greenhouse”, “14” for “13”, “21 days” for “15 days,”, “D,” for “C,”
# [5] = tested on: chickweed (common chickweed, Stellaria media); test: Test D pre-/postemergence: chickweed
# Description: as §4
# as §3, with “controlled growth environment” for “greenhouse”, “14” for “13”, “21 days” for “15 days,”, “D,” for “C,”
# [6] = tested on: bromegrass, downy (downy bromegrass, Bromus tectorum); test: Test D pre-/postemergence: bromegrass, downy
# Description: as §4
# as §3, with “controlled growth environment” for “greenhouse”, “14” for “13”, “21 days” for “15 days,”, “D,” for “C,”
# [7] = tested on: deadnettle (henbit deadnettle, Lamium amplexicaule); test: Test D pre-/postemergence: deadnettle
# Description: as §4
# as §3, with “controlled growth environment” for “greenhouse”, “14” for “13”, “21 days” for “15 days,”, “D,” for “C,”
# [8] = tested on: lambsquarters (Chenopodium album); test: Test D pre-/postemergence: lambsquarters
# Description: as §4
# as §3, with “controlled growth environment” for “greenhouse”, “14” for “13”, “21 days” for “15 days,”, “D,” for “C,”
# [9] = tested on: barley, winter (winter barley, Hordeum vulgare); test: Test D pre-/postemergence: barley, winter
# Description: as §4
# as §3, with “controlled growth environment” for “greenhouse”, “14” for “13”, “21 days” for “15 days,”, “D,” for “C,”
# [10] = tested on: canarygrass (Phalaris minor); test: Test C postemergence: canarygrass
# Description: as §2, §3
# [11] = Preemergence, 31 g ai/ha, scale of 0 to 100, 0 is no effect, 100 is complete control
# [12] = Preemergence, 62 g ai/ha, scale of 0 to 100, 0 is no effect, 100 is complete control
# [13] = Preemergence, 125 g ai/ha, scale 0 to 100, 0 no effect, 100 complete control
# [14] = Preemergence, 250 g ai/ha, scale 0 to 100, 0 no effect, 100 complete control
# [15] = Postemergence, 31 g ai/ha, scale 0 to 100 (0 no effect, 100 complete control)
# [16] = Postemergence, 62 g ai/ha, scale 0 to 100 (0 no effect, 100 complete control)
# [17] = Postemergence, 125 g ai/ha, scale 0 to 100, 0 no effect, 100 complete control
# [18] = Postemergence, 16 g ai/ha, scale 0 to 100
# [19] = Preemergence, 16 g ai/ha, scale 0 to 100 (0 no effect, 100 complete control)
# [20] = Preemergence, 31 g ai/ha, scale 0 to 100 (0 no effect, 100 complete control)
# [21] = Preemergence, 62 g ai/ha, scale 0 to 100
# [22] = Preemergence, 125 g ai/ha, scale 0 to 100
# [23] = Postemergence, 16 g ai/ha, scale 0 to 100, 0 no effect, 100 complete control
smiles,measurement,setting,value
Cc1nn(-c2ccc(F)c(C(F)(F)F)c2)nc1Oc1ccnc(C(F)(F)F)c1 [Compound 147],"Plant response rating, Foxtail, Green",[1]; [11],95
same,"Plant response rating, Foxtail, Green",[1]; [12],95
same,"Plant response rating, Foxtail, Green",[1]; [13],95
same,"Plant response rating, Foxtail, Green",[1]; [14],95
same,"Plant response rating, Surinam Grass",[2]; [11],55
same,"Plant response rating, Surinam Grass",[2]; [12],80
same,"Plant response rating, Surinam Grass",[2]; [13],95
same,"Plant response rating, Surinam Grass",[2]; [14],95
same,"Plant response rating, Goosegrass",[3]; [11],98
same,"Plant response rating, Goosegrass",[3]; [12],100
same,"Plant response rating, Goosegrass",[3]; [13],100
same,"Plant response rating, Goosegrass",[3]; [14],100
same,Plant response rating: Blackgrass,[4]; [15],25
same,Plant response rating: Blackgrass,[4]; [16],30
same,Plant response rating: Blackgrass,[4]; [17],60
same,"Plant response rating, Blackgrass",[4]; [18],15
same,"Plant response rating, Blackgrass",[4]; [19],0
same,"Plant response rating, Blackgrass",[4]; [20],0
same,"Plant response rating, Blackgrass",[4]; [21],30
same,"Plant response rating, Blackgrass",[4]; [22],40
same,Plant response rating: Chickweed,[5]; [15],70
same,Plant response rating: Chickweed,[5]; [16],80
same,Plant response rating: Chickweed,[5]; [17],80
same,"Plant response rating, Chickweed",[5]; [18],60
same,"Plant response rating, Chickweed",[5]; [19],35
same,"Plant response rating, Chickweed",[5]; [20],85
same,"Plant response rating, Chickweed",[5]; [21],70
same,"Plant response rating, Chickweed",[5]; [22],100
same,"Plant response rating: Bromegrass, Downy",[6]; [15],5
same,"Plant response rating: Bromegrass, Downy",[6]; [16],15
same,"Plant response rating: Bromegrass, Downy",[6]; [17],50
same,"Plant response rating, Bromegrass, Downy",[6]; [18],5
same,"Plant response rating, Bromegrass, Downy",[6]; [19],0
same,"Plant response rating, Bromegrass, Downy",[6]; [20],5
same,"Plant response rating, Bromegrass, Downy",[6]; [21],10
same,"Plant response rating, Bromegrass, Downy",[6]; [22],15
same,Plant response rating: Deadnettle,[7]; [15],95
same,Plant response rating: Deadnettle,[7]; [16],90
same,Plant response rating: Deadnettle,[7]; [17],100
same,"Plant response rating, Deadnettle",[7]; [18],65
same,"Plant response rating, Deadnettle",[7]; [19],5
same,"Plant response rating, Deadnettle",[7]; [20],10
same,"Plant response rating, Deadnettle",[7]; [21],100
same,"Plant response rating, Deadnettle",[7]; [22],100
same,Plant response rating: Lambsquarters,[8]; [15],75
same,Plant response rating: Lambsquarters,[8]; [16],90
same,Plant response rating: Lambsquarters,[8]; [17],95
same,"Plant response rating, Lambsquarters",[8]; [18],75
same,"Plant response rating, Lambsquarters",[8]; [19],5
same,"Plant response rating, Lambsquarters",[8]; [20],50
same,"Plant response rating, Lambsquarters",[8]; [21],80
same,"Plant response rating, Lambsquarters",[8]; [22],85
same,"Plant response rating: Barley, Winter",[9]; [15],20
same,"Plant response rating: Barley, Winter",[9]; [16],25
same,"Plant response rating: Barley, Winter",[9]; [17],30
same,"Plant response rating, Barley, Winter",[9]; [18],15
same,"Plant response rating, Barley, Winter",[9]; [19],0
same,"Plant response rating, Barley, Winter",[9]; [20],0
same,"Plant response rating, Barley, Winter",[9]; [21],5
same,"Plant response rating, Barley, Winter",[9]; [22],15
Cc1nn(-c2ccc(C(F)(F)F)cc2)nc1Cc1cccc(C(F)(F)F)c1 [Compound 124],"Plant response rating, Foxtail, Green",[1]; [23],65
same,"Plant response rating, Foxtail, Green",[1]; [15],70
same,"Plant response rating, Foxtail, Green",[1]; [16],90
same,"Plant response rating, Foxtail, Green",[1]; [17],95
same,"Plant response rating, Surinam Grass",[2]; [23],5
same,"Plant response rating, Surinam Grass",[2]; [15],10
same,"Plant response rating, Surinam Grass",[2]; [16],15
same,"Plant response rating, Surinam Grass",[2]; [17],20
same,"Plant response rating, Goosegrass",[3]; [23],25
same,"Plant response rating, Goosegrass",[3]; [15],45
same,"Plant response rating, Goosegrass",[3]; [16],55
same,"Plant response rating, Goosegrass",[3]; [17],65
same,"Plant response rating, Canarygrass","[10]; 16 g ai/ha, scale 0 to 100, 0 no effect, 100 complete control",0
same,"Plant response rating, Canarygrass","[10]; 31 g ai/ha, scale 0 to 100 (0 no effect, 100 complete control)",20
same,"Plant response rating, Canarygrass","[10]; 62 g ai/ha, scale 0 to 100 (0 no effect, 100 complete control)",35
same,"Plant response rating, Canarygrass","[10]; 125 g ai/ha, scale 0 to 100, 0 no effect, 100 complete control",85
